Measured values taken from PMC7357027 (Biomolecules, 2020).
“Also recorded” adds a separate entry of the source. Like-named read-outs stand apart in the source and are kept apart here.

Target: neuraminidase from Clostridium perfringens (Clostridium perfringens, UniProt A0A0H2YQR1)
Format: biochemical
Details: for Type of Inhibition: Lineweaver-Burk plot

Sequence of neuraminidase from Clostridium perfringens (A0A0H2YQR1 42-694 limits assumed): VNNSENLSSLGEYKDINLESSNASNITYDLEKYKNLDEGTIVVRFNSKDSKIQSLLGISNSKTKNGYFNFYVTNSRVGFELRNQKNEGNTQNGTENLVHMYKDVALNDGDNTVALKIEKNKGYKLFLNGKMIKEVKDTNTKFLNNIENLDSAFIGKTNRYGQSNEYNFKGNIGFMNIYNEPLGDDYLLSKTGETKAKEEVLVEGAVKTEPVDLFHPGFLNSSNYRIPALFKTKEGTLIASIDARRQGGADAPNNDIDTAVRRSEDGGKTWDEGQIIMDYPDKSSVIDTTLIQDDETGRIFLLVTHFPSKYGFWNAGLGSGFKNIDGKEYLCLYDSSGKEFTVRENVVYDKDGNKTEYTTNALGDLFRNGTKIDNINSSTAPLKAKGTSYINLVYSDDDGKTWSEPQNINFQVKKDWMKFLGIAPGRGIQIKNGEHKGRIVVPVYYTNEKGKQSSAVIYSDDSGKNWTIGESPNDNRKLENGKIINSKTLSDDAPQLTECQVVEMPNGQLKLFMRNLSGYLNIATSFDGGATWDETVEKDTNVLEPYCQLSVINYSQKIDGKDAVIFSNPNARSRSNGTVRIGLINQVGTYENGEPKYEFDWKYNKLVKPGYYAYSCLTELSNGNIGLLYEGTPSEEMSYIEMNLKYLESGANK

O=C(/C=C/c1ccc(O)c(O)c1)O[C@@H]1C[C@](OC(=O)/C=C/c2ccc(O)c(O)c2)(C(=O)O)C[C@@H](O)[C@H]1O [compound 3, 1,5-di-O-Caffeoylquinic Acid]
Type of Inhibition: competitive inhibitor | Type of Inhibition (listed as 1,5-di-O-caffeoylquinic acid (3, 1,5-COQ)): Competitive | reversibility of inhibition (remaining enzyme activity versus enzyme concentration at different inhibitor concentrations (Figure 2b)): reversible inhibitor

O=C(/C=C/c1ccc(O)c(O)c1)O[C@@H]1C[C@](O)(C(=O)O)C[C@@H](O)[C@H]1O [compound 4, 5-O-Caffeoylquinic Acid]
Type of Inhibition: competitive inhibitor | Type of Inhibition (listed as 5-O-Caffeoylquinic acid (4, 5-COQ)): Competitive

C=C1COC(=O)[C@]12C[C@@]1(C)C([C@@H](OC(=O)/C=C\SC)CC[C@@H]1C)[C@H]2OC(C)=O (stereo partly shown) [compound 2, Bakkenolide D]
Type of Inhibition: non-competitive inhibition | Type of Inhibition (listed as Bakkenolide D (2)): non-competitive inhibitor; also recorded: Noncompetitive
